From US3985779A, “M-phenoxyphenyl propionic acid derivatives and preparation thereof” (Eisai Co., Ltd., priority 1973, dated 1976)
Like-named read-outs stand apart in the source and are kept apart here.

How the values were obtained:
[1] = system: Dextran-induced edema; assay: Inhibitory activity on dextran-induced edema in rats (Experiment C); type: in vivo
Description: Inhibitory activity on dextran-induced edema in rats Experiment was carried out in the manner same as those of the preceding Experiments in which dextran was employed as irritant substance.

[2] = system: ARRS-induced edema; assay: Inhibitory activity on anti-rat-rabbit serum (ARRS)-induced edema in rats (Experiment D); type: in vivo
Description: Inhibitory activity on anti-rat-rabbit serum (ARRS)-induced edema in rats Similar Experiments was carried out by using ARRS as irritant substance.

[3] = system: Carrageenin-induced edema; assay: Inhibitory activity on Carrageenin-induced Edema in rats (Experiment A); type: in vivo, rats (male Wistar); conditions: 3 hours after Carrageenin
Description: Inhibitory activity on Carrageenin-induced Edema in rats
Carrageenin was used as the agent for inducing edema and 5 male rats of Wistar strain having body weight of about 150 grs. after fasting for 16-17 hours were used as test animals. The inhibitory activity of the test compounds were determined with the paw edema method in accordance with Winter C. A. et al; Proc. Soc. Exp. Biol. Med. 111, 544 (1962).
The compounds were suspended in an aqueous solution of gum arabic and the same were orally administered to the rats at 1 hour before the injection of Carrageenin.
The observation was effected by measuring, after 3 hours the administration of the Carrageenin, the enlarged volumes of hind paw of the rats.

[4] = system: Kaolin-induced edema; assay: Inhibitory activity on Kaolin-induced Edema in Rats (Experiment B); type: in vivo
[5] = system: granuloma induced by Formalin Filter paper Pellet; conditions: for Adrenal / Granuloma-Wet-Weight (in words) / Thymus: 6 days
[6] = system: yeast-induced pyrexia; assay: Antipyretic activity to the yeast-treated rats (Experiment I); type: in vivo, rats (Wistar strain male)
Description: To Wistar strain male rats having about 300 - 350 grs. body weight, an aqueous suspension of yeast was subcutaneously injected to induce pyrexia.
At the lapse of 4 hours since the dose of the yeast suspension, the compounds under test given in hereinaftermentioned Table 10 in a form of suspension in a 5% gum arabic aqueous solution are orally administered. The rectal temperatures of the rats were measured periodically by means of a thermister-type thermometer sold by Japan Koden K.K. As control, said 5% gum arabic aqueous solution alone was administered.

[7] = system: Adjuvant-induced arthritis; assay: Inhibitory activity on Adjuvant arthritis in rats (Experiment E); type: in vivo
Description: The inflammatory score and the volumes of the right and left paws of the rats were observed.

[8] = system: writhing syndrome; assay: Analgesic activity: antagonism to acetic acid writhing syndrome in mice (Experiment J); type: in vivo, mice (dd strain male)
Description: Analgesic activity of the compound of the present invention in comparison with the known compounds.
Analgesic activity of the compound was tested as the measure of antagonism to writhing syndrome appeared when 0.1 ml/10g of 0.7% acetic acid was intraperitoneally injected to the dd strain male mice having 17 - 20 grs. body weight which had been abstinence from food for 18 hours.
The compounds under test were orally administered in a form of suspension in a 5% aqueous solution of gum arabic. After one hour from the administration, the onset times required for the writhing syndrome were scored.
In another Experiment in the combined use of the compounds under test and Codeine phosphate, 10 - 20 mg/kg of Codeine phosphate were orally administered immediatly after the oral administration of the compounds under test.

[9] = daily oral 40 mg/kg for 9 days, final

## CC(C(=O)O)c1cccc(Oc2ccc(Cl)cc2)c1 (centres unmarked) [(3), 2-[m-(p-chlorophenoxy)phenyl]propionic acid]
[1]; after 2 hrs, oral 16 mg/kg
  % of Inhibition: 6%
  Edema D. ± S.E.: .782 ± .062
[1]; after 2 hrs, oral 80 mg/kg
  % of Inhibition: 7%
  Edema D. ± S.E.: .776 ± .022
[1]; after 3 hrs, oral 16 mg/kg
  % of Inhibition: 5%
  Edema D. ± S.E.: .713 ± .036
[1]; after 3 hrs, oral 80 mg/kg
  % of Inhibition: 4%
  Edema D. ± S.E.: .723 ± .027
[2]; after 2 hrs, oral 16 mg/kg
  % of Inhibition: 10%
  Edema D. ± S.E.: .613 ± .054
[2]; after 2 hrs, oral 80 mg/kg
  % of Inhibition: 1%
  Edema D. ± S.E.: .672 ± .036
[2]; after 3 hrs, oral 16 mg/kg
  % of Inhibition: 16%
  Edema D. ± S.E.: .599 ± .065
[2]; after 3 hrs, oral 80 mg/kg
  % of Inhibition: 11%
  Edema D. ± S.E.: .634 ± .016
[3]; oral 3.2 mg/kg
  % of Inhibition: 20%
  Edema density ± S.E.: .430 ± .068
[3]; oral 80.0 mg/kg
  % of Inhibition: 38%
  Edema density ± S.E.: .334 ± .055
[4]; after 3 hrs, oral 16 mg/kg
  Edema D. ± S.E.: .418 ± .024
[4]; after 3 hrs, oral 80 mg/kg
  % of Inhibition: 29%
  Edema D. ± S.E.: .297 ± .085
[4]; after 5 hrs, oral 16 mg/kg
  % of Inhibition: 13%
  Edema D. ± S.E.: .491 ± .021
[4]; after 5 hrs, oral 80 mg/kg
  % of Inhibition: 40%
  Edema D. ± S.E.: .340 ± .107
[4]; after 7 hrs, oral 16 mg/kg
  % of Inhibition: 14%
  Edema D. ± S.E.: .524 ± .037
[4]; after 7 hrs, oral 80 mg/kg
  % of Inhibition: 27%
  Edema D. ± S.E.: .442 ± .119

## CC(C(=O)O)c1cccc(Oc2ccc(Cl)cc2)c1 (centres unmarked) [(4)]
[1]; after 2 hrs, oral 8 mg/kg
  % of Inhibition: 10%
  Edema D. ± S.E.: .753 ± .052
[1]; after 2 hrs, oral 40 mg/kg
  % of Inhibition: 6%
  Edema D. ± S.E.: .780 ± .033
[1]; after 3 hrs, oral 8 mg/kg
  % of Inhibition: 10%
  Edema D. ± S.E.: .780 ± .033
[1]; after 3 hrs, oral 40 mg/kg
  % of Inhibition: 8%
  Edema D. ± S.E.: .692 ± .048
[2]; after 2 hrs, oral 8 mg/kg
  % of Inhibition: 5%
  Edema D. ± S.E.: .649 ± .032
[2]; after 2 hrs, oral 40 mg/kg
  % of Inhibition: 17%
  Edema D. ± S.E.: .563 ± .016
[2]; after 3 hrs, oral 8 mg/kg
  % of Inhibition: 13%
  Edema D. ± S.E.: .621 ± .058
[2]; after 3 hrs, oral 40 mg/kg
  % of Inhibition: 25%
  Edema D. ± S.E.: .535 ± .027
[3]; oral 8.0 mg/kg
  % of Inhibition: 12%
  Edema density ± S.E.: .477 ± .049
[3]; oral 40.0 mg/kg
  % of Inhibition: 46%
  Edema density ± S.E.: .293 ± .056
[4]; after 3 hrs, oral 8 mg/kg
  % of Inhibition: 12%
  Edema D. ± S.E.: .369 ± .048
[4]; after 3 hrs, oral 40 mg/kg
  % of Inhibition: 35%
  Edema D. ± S.E.: .271 ± .075
[4]; after 5 hrs, oral 8 mg/kg
  % of Inhibition: 8%
  Edema D. ± S.E.: .519 ± .035
[4]; after 5 hrs, oral 40 mg/kg
  % of Inhibition: 41%
  Edema D. ± S.E.: .333 ± .073
[4]; after 7 hrs, oral 8 mg/kg
  % of Inhibition: -3%
  Edema D. ± S.E.: .625 ± .040
[4]; after 7 hrs, oral 40 mg/kg
  % of Inhibition: 35%
  Edema D. ± S.E.: .396 ± .072

## CC(C)Cc1ccc(C(C)C(=O)O)cc1 (centres unmarked) [Ibuprofen, 2,4'-isobutylphenylpropionic acid, reference compound]
[1]; after 2 hrs, oral 8 mg/kg
  % of Inhibition: 5%
  Edema D. ± S.E.: .791 ± .038
[1]; after 2 hrs, oral 40 mg/kg
  % of Inhibition: 9%
  Edema D. ± S.E.: .760 ± .075
[1]; after 3 hrs, oral 8 mg/kg
  % of Inhibition: 9%
  Edema D. ± S.E.: .683 ± .024
[1]; after 3 hrs, oral 40 mg/kg
  % of Inhibition: 6%
  Edema D. ± S.E.: .705 ± .056
[5]; daily oral 8 mg/kg
  Adrenal: 39.2 mg
  Granuloma-Wet-Weight (in words): Non Effective
  Thymus: 631 mg
[5]; daily oral 40 mg/kg
  Adrenal: 34.3 mg
  Granuloma-Wet-Weight (in words): Non Effective
  Thymus: 471 mg
[5]; oral 8 and 40 mg/kg/day for successive 6 days
  inhibitory activity on granuloma (in words): entirely not effective
[6]; 1 hr, 1.25 mg/kg p.o.
  Change in rectal temperature, mean ± S.E.: +0.03 ± 0.05
[6]; 1 hr, 5 mg/kg p.o.
  Change in rectal temperature, mean ± S.E.: -0.75 ± 0.09
[6]; 1 hr, 20 mg/kg p.o.
  Change in rectal temperature, mean ± S.E.: -0.65 ± 0.18
[6]; 1 hr, 80 mg/kg p.o.
  Change in rectal temperature, mean ± S.E.: -0.70 ± 0.25
[6]; 1 hr, 160 mg/kg p.o.
  Change in rectal temperature, mean ± S.E.: -0.70 ± 0.08
[6]; 3 hrs, 1.25 mg/kg p.o.
  Change in rectal temperature, mean ± S.E.: +0.05 ± 0.12
[6]; 3 hrs, 5 mg/kg p.o.
  Change in rectal temperature, mean ± S.E.: -0.80 ± 0.21
[6]; 3 hrs, 20 mg/kg p.o.
  Change in rectal temperature, mean ± S.E.: -0.93 ± 0.13
[6]; 3 hrs, 80 mg/kg p.o.
  Change in rectal temperature, mean ± S.E.: -1.03 ± 0.19
[6]; 3 hrs, 160 mg/kg p.o.
  Change in rectal temperature, mean ± S.E.: -0.95 ± 0.28
[6]; 5 hrs, 1.25 mg/kg p.o.
  Change in rectal temperature, mean ± S.E.: -0.18 ± 0.12
[6]; 5 hrs, 5 mg/kg p.o.
  Change in rectal temperature, mean ± S.E.: -0.20 ± 0.33
[6]; 5 hrs, 20 mg/kg p.o.
  Change in rectal temperature, mean ± S.E.: -0.95 ± 0.15
[6]; 5 hrs, 80 mg/kg p.o.
  Change in rectal temperature, mean ± S.E.: -0.90 ± 0.22
[6]; 5 hrs, 160 mg/kg p.o.
  Change in rectal temperature, mean ± S.E.: -1.03 ± 0.29
[6]; Rattus norvegicus, po, read-out: dose with apparent antipyretic activity
  minimal effective dose: > 5 mg/kg
[6]; p.o.
  dose with maximum antipyretic activity: 20 mg/kg
[7]; [9]
  Final Score, Mean, left paw: 2.2
  Final Score, Mean, right paw: 3.8
  Final Score, Total, left paw: 11
  Final Score, Total, right paw: 19
[7]; daily oral 40 mg/kg, initial
  Initial Score, Mean, left paw: 1.8
  Initial Score, Mean, right paw: 3.8
  Initial Score, Total, left paw: 9
  Initial Score, Total, right paw: 19
[2]; after 2 hrs, oral 8 mg/kg
  % of Inhibition: 10%
  Edema D. ± S.E.: .615 ± .062
[2]; after 2 hrs, oral 40 mg/kg
  % of Inhibition: 10%
  Edema D. ± S.E.: .608 ± .047
[2]; after 3 hrs, oral 8 mg/kg
  % of Inhibition: 12%
  Edema D. ± S.E.: .627 ± .049
[2]; after 3 hrs, oral 40 mg/kg
  % of Inhibition: 27%
  Edema D. ± S.E.: .520 ± .026
[8]; 10 mg/kg p.o. combined with Codeine Phosphate 10 mg/kg
  Onset time of writhing syndrome, mean ± S.E.: 4.4 ± 0.3 min
[8]; 10 mg/kg p.o. combined with Codeine Phosphate 20 mg/kg
  Onset time of writhing syndrome, mean ± S.E.: 9.2 ± 1.4 min
[8]; 20 mg/kg p.o. combined with Codeine Phosphate 10 mg/kg
  Onset time of writhing syndrome, mean ± S.E.: 6.0 ± 1.1 min
[8]; 20 mg/kg p.o. combined with Codeine Phosphate 20 mg/kg
  Onset time of writhing syndrome, mean ± S.E.: 6.1 ± 0.4 min
[8]; 40 mg/kg p.o. combined with Codeine Phosphate 10 mg/kg
  Onset time of writhing syndrome, mean ± S.E.: 8.0 ± 1.6 min
[8]; 40 mg/kg p.o. combined with Codeine Phosphate 20 mg/kg
  Onset time of writhing syndrome, mean ± S.E.: 11.0 ± 1.4 min
[8]; 80 mg/kg p.o. combined with Codeine Phosphate 10 mg/kg
  Onset time of writhing syndrome, mean ± S.E.: 9.2 ± 1.3 min
[8]; 80 mg/kg p.o. combined with Codeine Phosphate 20 mg/kg
  Onset time of writhing syndrome, mean ± S.E.: 13.3 ± 0.8 min
[8]; Mus musculus, 1 h, single oral administration, read-out: dose with significant antagonism / retardation of writhing syndrome
  minimal effective dose: 80 mg/kg
[8]; test compound alone, 10 mg/kg p.o.
  Onset time of writhing syndrome, mean ± S.E.: 5.5 ± 1.4 min
[8]; test compound alone, 20 mg/kg p.o.
  Onset time of writhing syndrome, mean ± S.E.: 5.6 ± 1.4 min
[8]; test compound alone, 40 mg/kg p.o.
  Onset time of writhing syndrome, mean ± S.E.: 4.5 ± 0.4 min
[8]; test compound alone, 80 mg/kg p.o.
  Onset time of writhing syndrome, mean ± S.E.: 6.5 ± 1.1 min
[4]; after 3 hrs, oral 8 mg/kg
  % of Inhibition: 25%
  Edema D. ± S.E.: .313 ± .093
[4]; after 3 hrs, oral 40 mg/kg
  % of Inhibition: 36%
  Edema D. ± S.E.: .267 ± .055
[4]; after 5 hrs, oral 8 mg/kg
  % of Inhibition: 20%
  Edema D. ± S.E.: .450 ± .075
[4]; after 5 hrs, oral 40 mg/kg
  % of Inhibition: 29%
  Edema D. ± S.E.: .401 ± .068
[4]; after 7 hrs, oral 8 mg/kg
  % of Inhibition: 6%
  Edema D. ± S.E.: .571 ± .046
[4]; after 7 hrs, oral 40 mg/kg
  % of Inhibition: 15%
  Edema D. ± S.E.: .514 ± .105
[4]; oral 40 - 50 mg/kg
  inhibitory effect on edema: 15%
